Measured values as given in publication PMC12892976, “Alkylation-based optimization of antifungal FPPS inhibitors yields a potent, broad-spectrum lipophilic zoledronate derivative” (mBio, 2025).

Key:
A. fumigatus [1] = experiment: membrane permeabilization, nucleic acid leakage; type: cell-based, Aspergillus fumigatus
Experimental: (§1) Membrane permeabilization was determined by measuring the leakage of nucleic acid into the supernatant ([19]). […] Suspensions were incubated at 30°C with shaking at 200 rpm for 6 h, then passed through a 0.45 µm syringe filter. The A260 of each filtrate was measured with a DS-11 FX +benchtop spectrophotometer (DeNovix).

C. albicans [2] = experiment: membrane fluidity, TMA-DPH anisotropy; type: cell-based, Candida albicans
Experimental: (§2) Candida albicans cells were incubated for 6 h, and C. neoformans cells were incubated for 9 h at 30°C, washed, then labeled with 2 µM TMA-DPH in PBS for 10 min. […] Mycelia were fixed, and protoplasts were prepared as described previously ([50]). Protoplasts were washed twice and labeled with 2 µM TMA-DPH in PBS for 30 min. For all labeled cultures, parallel and perpendicular fluorescence intensities were measured at 440 nm in a CLARIOstar plate reader (BMG Labtech), and anisotropy was calculated.

C. albicans [3] = experiment: membrane permeabilization, nucleic acid leakage; type: cell-based, Candida albicans
Experimental: as §1

A. fumigatus [4] = experiment: membrane fluidity, TMA-DPH anisotropy; type: cell-based, Aspergillus fumigatus
Experimental: as §2

## CCCCCCCCCCn1cc[n+](CC(O)(P(=O)(O)O)P(=O)(O)O)c1 [10-ZOL, Decyl-zoledronate]
A. fumigatus [1]
  concentration giving significant increase in leaked nucleic acid: ≥ 1 × MIC
C. albicans [2]
  concentration from which anisotropy differs significantly from no-drug control: 0.5 × MIC
C. albicans [3]
  concentration giving significant increase in leaked nucleic acid: ≥ 1 × MIC
A. fumigatus [4]
  concentration from which anisotropy differs significantly from no-drug control: 2 × MIC
